Data set [1] deals with HEK293T (human embryonic kidney) cells. In words: Cytotoxicity, MTT assay, HEK293T. The conditions noted are these: HEK-293T, 24 h. The class given is cell-based.
A further data set has as its target T1, equine serum BChE (Equus caballus, UniProt P81908).
T1 construct: purchased Sigma-Aldrich; Milamed, Perm, Russia (supplement); host or cells: horse serum
Put plainly: biochemical.

A further data set addresses β‐amyloid (1–42) (Aβ42) (Homo sapiens, UniProt P05067). Put plainly: Inhibition of Aβ42 self-aggregation (thioflavin T fluorescence). The class given is biochemical. The conditions noted are these: Aβ42 50 µM, compound 100 µM; read-out: Inhibition of Aβ42 self‐aggregation, %. On the procedure: Inhibition of Aβ42 self‐aggregation by test compounds was studied using the ThT fluorescence method^[ [67], [68] ^] with minor modifications as described in detail in Makhaeva et al.^[ [16] ^] Lyophilized hexamfluoroisopropanol‐pretreated Aβ42 (GenicBio Limited, 1 mg) was dissolved in DMSO to obtain a stable 500 μM solution. […] Myricetin and propidium iodide in the same concentration were used as references. […] Each assay was run in triplicate.
^c The inhibitory effect of the test compounds toward Aβ42 self-aggregation was determined using the thioflavin T (ThT) fluorescence method ^[5-7] with minor modifications as described in detail in ^[8]. Lyophilized HFIP-pretreated Aβ42 from BACHEM (Bubendorf, Switzerland) was used. […] Myricetin and propidium iodide were used as reference compounds (positive controls). Analyses were performed with a FLUOStar Optima microplate reader (LabTech, Ortenberg, Germany). The inhibition (%) of Aβ42 self-aggregation by the test compounds was calculated by the following equation: […]
where IFi and IFo are the fluorescence intensities obtained for Aβ42 in the presence and in the absence of inhibitor, respectively, after subtracting the fluorescence of respective blanks.

In data set [2] the test system is porcine liver CES. Put plainly: In vitro CES inhibition (4-NPA substrate). The data set is classed as biochemical. As to conditions: for CES inhibition, %: % inhibition at 20 μM, n.a. = not active. On the procedure:
The esterase profile of the synthesized conjugates was determined. This included an assessment of their inhibition of cholinergic targets AChE and BChE along with a structurally related enzyme CES (EC 3.1.1.1), which hydrolyzes numerous ester‐containing drugs and is considered as an off‐target for anti‐AD agents.^[ [9], [40] ^] Human erythrocyte AChE, equine serum BChE, and porcine liver CES were used.^[ [40], [41], [42] ^]
Initially, we used a single concentration of 20 µM for all compounds.
^a All experiments were carried out in accordance with the standard protocols approved by IPAС RAS. Human erythrocyte AChE, equine serum BChE were purchased from Milamed (Perm, Russia). Porcine liver CES, substrates, and reference compounds were from Sigma-Aldrich (St. Louis, MO, USA). The activity of enzymes was measured spectrophotometrically, as described in detail in ^[1] using ATCh iodide, BTCh iodide, and 4-NPA as substrates for AChE, BChE, and CES, respectively. Experimental conditions: K,Na-phosphate buffer (100 mM), 25 °С, pH 7.5 for AChE and BChE and pH 8.0 for CES assay. Measurements were carried out on a FLUOStar Optima microplate reader (BMG Labtech, Ortenberg, Germany). Test compounds were dissolved in DMSO; final concentration of solvent in the incubation mixture was 2% (v/v).

Data set [3] addresses T2, PAS of Electrophorus electricus AChE (EeAChE) (Electrophorus electricus, UniProt O42275).
T2 construct: purchased Sigma-Aldrich type VI-S; host or cells: electric eel tissue
The data set is classed as binding. The conditions noted are these: 20 µM compound concentration. As for the experimental part:
The ability of the test compounds to competitively displace propidium was evaluated by the fluorescence method,^[ [65] ^] as described in detail in Makhaeva et al.^[ [66] ^] […] After 15 min of incubation of the test compounds at a concentration of 20 μM with a 7 μM solution of EeAChE in 1 mM Tris‐HCl buffer, pH 8.0, 25°C, propidium iodide (final concentration 8 μM) was added. Then, the solutions were incubated for 15 min and the fluorescence spectrum was recorded (530 nm (excitation) and 600 nm (emission)). […] Measurements were performed in triplicate on a FLUOStar Optima microplate reader (BMG LabTech).
The 7 μM EeAChE was incubated with the test compound at a concentration of 20 μM in 1 mM Tris-HCl buffer pH 8.0, 25 °C, for 15 min. After that, propidium iodide was added at final concentration of 8 μM. The samples were incubated for 15 min and the fluorescence spectrum (530 nm (excitation) and 600 nm (emission)) was taken. […] The measurements were carried out in triplicate on a FLUOStar Optima microplate reader. The degree of propidium displacement (% displacement) from the PAS of EeAChE was calculated by formula (1):
% Displacement = 100 – (IFAChE+ Propidium + inhibitor / IFAChE + Propidium) × 100 (1),
where IFAChE + Propidium is the fluorescence intensity of the propidium associated with AChE in the absence of the test compound (taken as 100%), and IFAChE + Propidium + inhibitor is the fluorescence intensity of the propidium associated with AChE in the presence of the test compound.

The test system of data set [4] is HepG2 cells (human hepatocellular carcinoma). In words: Cytotoxicity, MTT assay, HepG2. The data set is classed as cell-based. In general terms: Tetrazolium dyes change colour on reduction, which living cells bring about.
Data set [5] has as its system SH‐SY5Y (human neuroblastoma) cells. In words: Cytotoxicity, MTT assay, SH-SY5Y. The class given is cell-based. As to conditions: 24 h.
A short description of data set [6]: ABTS radical cation scavenging activity assay. As to conditions: for IC50: concentration reducing ABTS radical by 50%, 1 h; for ABTS^•+‐scavenging activity, TEAC: relative to Trolox, 1 h incubation, n.a. = inactive.
Protocol: Data are given for 1 h of incubation of compounds with ABTS^•+. The AOA of the compounds was evaluated as Trolox equivalent antioxidant capacity (TEAC values) as the ratio of the slopes of the concentration–response curves, test compound/Trolox. All tests were performed at least in triplicate in three independent experiments. The IC50 values for the test compounds were also determined.
The next data set concerns the target T3, human erythrocyte AChE (Homo sapiens, UniProt P22303).
T3 construct: purchased Sigma-Aldrich; Milamed, Perm, Russia (supplement); host or cells: human erythrocytes
Put plainly: biochemical. The class given is biochemical. As to conditions: for IC50: human erythrocyte AChE, mean ± SEM, n = 3.

For data set [7] the following is noted: cited from earlier work.
Data set [8] has as its system porcine liver CES. Set-up: method as in PMID 35322571. As to conditions: % inhibition at 20 μM; cited from earlier work.
Details of data set [9]: method as in PMID 35322571. The conditions noted are these: cited from earlier work.
Where [10] appears, read: MTT, mean ± SEM, n = 3, read-out: HEK293T IC50.
The mark [11] stands for this setting: equine serum BChE, mean ± SEM, n = 3.
Setting [12] is: HepG2, MTT, 24 h, mean ± SEM, n = 3, read-out: Hep G2 IC50.
Setting [13] is: MTT, mean ± SEM, n = 3, read-out: SH‐SY5Y IC50.

Each structure is given as a SMILES string. Read-outs that look alike come from different tables or passages of the source.

T2 sequence (O42275 24-633): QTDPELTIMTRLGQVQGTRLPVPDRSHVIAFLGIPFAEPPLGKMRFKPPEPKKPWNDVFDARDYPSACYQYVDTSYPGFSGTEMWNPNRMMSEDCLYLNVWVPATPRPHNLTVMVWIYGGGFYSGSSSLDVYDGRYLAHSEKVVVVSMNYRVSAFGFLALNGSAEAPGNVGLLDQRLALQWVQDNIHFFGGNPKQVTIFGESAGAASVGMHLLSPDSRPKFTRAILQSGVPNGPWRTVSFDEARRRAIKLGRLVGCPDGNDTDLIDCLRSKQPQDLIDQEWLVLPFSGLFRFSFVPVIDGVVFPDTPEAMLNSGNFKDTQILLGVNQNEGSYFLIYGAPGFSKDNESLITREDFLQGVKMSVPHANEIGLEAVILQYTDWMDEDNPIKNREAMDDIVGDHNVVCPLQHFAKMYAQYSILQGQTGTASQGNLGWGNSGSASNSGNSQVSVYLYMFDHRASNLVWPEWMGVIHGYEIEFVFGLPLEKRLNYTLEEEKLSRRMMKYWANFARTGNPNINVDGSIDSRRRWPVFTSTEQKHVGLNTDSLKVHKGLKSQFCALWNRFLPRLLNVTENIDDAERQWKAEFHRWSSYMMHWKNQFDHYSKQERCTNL
β‐amyloid (1–42) (Aβ42), sequence (P05067 672-713 limits assumed): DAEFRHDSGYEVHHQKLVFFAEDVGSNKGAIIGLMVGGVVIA
T1 sequence (P81908 whole entry): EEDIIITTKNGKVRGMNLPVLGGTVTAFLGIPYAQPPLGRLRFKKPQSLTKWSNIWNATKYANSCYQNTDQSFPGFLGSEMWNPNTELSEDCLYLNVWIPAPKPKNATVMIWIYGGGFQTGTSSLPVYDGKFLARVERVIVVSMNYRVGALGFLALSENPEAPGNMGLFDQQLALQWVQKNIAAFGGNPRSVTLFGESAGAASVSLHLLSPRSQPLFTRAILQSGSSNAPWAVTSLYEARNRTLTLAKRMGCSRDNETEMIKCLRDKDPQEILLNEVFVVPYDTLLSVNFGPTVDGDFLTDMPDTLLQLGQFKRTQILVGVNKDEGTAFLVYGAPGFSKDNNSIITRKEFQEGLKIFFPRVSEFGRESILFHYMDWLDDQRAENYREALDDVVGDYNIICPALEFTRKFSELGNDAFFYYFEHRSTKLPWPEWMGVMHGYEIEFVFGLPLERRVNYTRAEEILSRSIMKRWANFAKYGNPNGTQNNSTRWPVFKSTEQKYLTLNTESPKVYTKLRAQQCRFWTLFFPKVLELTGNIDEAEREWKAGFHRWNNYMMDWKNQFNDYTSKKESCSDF
T3 sequence (P22303 32-617 isoform P22303-2 limits assumed): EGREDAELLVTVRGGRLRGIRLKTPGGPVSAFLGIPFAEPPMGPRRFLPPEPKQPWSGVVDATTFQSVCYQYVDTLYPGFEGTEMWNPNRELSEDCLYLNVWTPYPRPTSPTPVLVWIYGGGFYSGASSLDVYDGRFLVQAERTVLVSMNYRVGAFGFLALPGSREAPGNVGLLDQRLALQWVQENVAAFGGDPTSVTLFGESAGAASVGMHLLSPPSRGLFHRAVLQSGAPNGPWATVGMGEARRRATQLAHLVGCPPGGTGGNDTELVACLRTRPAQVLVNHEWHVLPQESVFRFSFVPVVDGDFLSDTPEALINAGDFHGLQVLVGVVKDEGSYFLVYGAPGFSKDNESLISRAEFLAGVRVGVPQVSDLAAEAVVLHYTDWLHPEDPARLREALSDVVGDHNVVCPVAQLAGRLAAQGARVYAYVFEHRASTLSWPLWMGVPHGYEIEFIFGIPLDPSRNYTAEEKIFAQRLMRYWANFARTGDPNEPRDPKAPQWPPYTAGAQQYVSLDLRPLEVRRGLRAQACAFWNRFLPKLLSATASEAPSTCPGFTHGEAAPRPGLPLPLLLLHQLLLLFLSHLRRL

One may read the IC50 as the point on the concentration scale where inhibition reaches its midpoint. In general, inhibition refers to the percentage by which the read-out fell short of the control. Take `O=C(NCCCCCCCCNc1c2c(nc3c1CCC3)CCCC2)c1ccccc1O` [7c, N‐{8‐[(2,3,5,6,7,8‐hexahydro‐1H‐cyclopenta[b]quinolin‐9‐yl)amino]octyl}−2‐hydroxybenzamide]: the IC50 in data set [1] (setting [10]) is 3.62 ± 0.02 µM; at equine serum BChE, 0.011 ± 0.0001 µM; against equine serum BChE (setting [11]), 0.0111 ± 0.0001 µM; in [4] (setting [12]), 6.92 ± 1.22 µM; in data set [5] (setting [13]) it was 7.99 ± 0.3 µM; in [6] it was 19.4 ± 0.6 µM. The compound also showed an IC50 at human erythrocyte AChE of 1.53 ± 0.03 µM. The “BChE inhibition, times more effective than amiridine” value on equine serum BChE amounted to 25 times. On equine serum BChE, the “Selectivity index IC50AChE/IC50BChE” value was determined as 138. In addition, the inhibition at 100 µM on β‐amyloid (1–42) (Aβ42) amounted to 74.1 ± 5.1%. The “CES inhibition, %” value in the data set with porcine liver CES [2] was 32.9 ± 0.9%. For the same compound, in [3], the “Propidium displacement, %” value was found to be 11.8 ± 0.8%. Also, the “ABTS^•+‐scavenging activity, TEAC” value in data set [6] is recorded as 0.94 ± 0.04.
Take `Oc1ccccc1C=NCCCCNc1c2c(nc3c1CCC3)CCCC2` [9a, 2‐[({4‐[(2,3,5,6,7,8‐Hexahydro‐1H‐cyclopenta[b]quinolin‐9‐yl)amino]butyl}imino)methyl]phenol]: the IC50 was 38.1 ± 2.1 µM in [1] (setting [10]); 0.642 ± 0.007 µM against equine serum BChE (setting [11]); more than 100 µM in [4] (setting [12]); 73.2 ± 0.9 µM in data set [5] (setting [13]); 26.6 ± 1.1 µM in data set [6]; 3.31 ± 0.02 µM against human erythrocyte AChE. The “Selectivity index IC50AChE/IC50BChE” value on equine serum BChE was determined as 5.2. For the same compound, the inhibition at 100 µM at β‐amyloid (1–42) (Aβ42) turned out to be 20.1 ± 1.4%. In addition, in the data set on porcine liver CES [2], the “CES inhibition, %” value came out at 10.5 ± 0.9%. The “Propidium displacement, %” value in data set [3] came out at 12.5 ± 1.1%. Also, the “ABTS^•+‐scavenging activity, TEAC” value worked out at 0.65 ± 0.03 in [6] and 0.65 in data set [6] (listed as 9a a).
Turning to `Oc1ccccc1C=NCCCCCCCCNc1c2c(nc3c1CCC3)CCCC2` [9c, 2‐[({8‐[(2,3,5,6,7,8‐Hexahydro‐1H‐cyclopenta[b]quinolin‐9‐yl)amino]octyl}imino)methyl]phenol], the IC50 in data set [1] (setting [10]) was 22.2 ± 2.2 µM; at equine serum BChE (setting [11]) it was 0.025 ± 0.001 µM; in [4] (setting [12]), 95.9 ± 5.4 µM; in data set [5] (setting [13]) it was 63.5 ± 4.4 µM; in [6], 29.6 ± 1.2 µM; against human erythrocyte AChE it was 1.42 ± 0.14 µM. For the same compound, at equine serum BChE, the “Selectivity index IC50AChE/IC50BChE” value was determined as 56.8. In addition, the inhibition at 100 µM on β‐amyloid (1–42) (Aβ42) was 71.7 ± 5.1%. Besides, in the data set on porcine liver CES [2], the “CES inhibition, %” value amounted to 25.8 ± 0.7%. For the same compound, the “Propidium displacement, %” value in data set [3] amounted to 11.6 ± 0.9%. Further, in [6], the “ABTS^•+‐scavenging activity, TEAC” value worked out at 0.63 ± 0.02.
For `Oc1ccccc1CNCCCCNc1c2c(nc3c1CCC3)CCCC2` [10a, 2‐[({4‐[(2,3,5,6,7,8‐Hexahydro‐1H‐cyclopenta[b]quinolin‐9‐yl)amino]butyl}amino)methyl]phenol], the IC50 in [1] (setting [10]) was 4.49 ± 0.27 µM; against equine serum BChE (setting [11]), 0.198 ± 0.019 µM; in data set [4] (setting [12]), 27.6 ± 1.3 µM; in [5] (setting [13]) it was 90.8 ± 1.3 µM; in data set [6] it was 10.1 ± 0.5 µM; against human erythrocyte AChE, 2.4 ± 0.15 µM. In addition, at equine serum BChE, the “Selectivity index IC50AChE/IC50BChE” value was 12.1. Also, the inhibition at 100 µM on β‐amyloid (1–42) (Aβ42) stood at 30.5 ± 2.4%. Besides, the “CES inhibition, %” value with porcine liver CES [2] worked out at 6.2 ± 0.5%. The “Propidium displacement, %” value in data set [3] was found to be 13.6 ± 0.9%. The “ABTS^•+‐scavenging activity, TEAC” value in data set [6] is 1.5 ± 0.08; in data set [6] (listed as 10a as), 1.5.
As for `Oc1ccccc1CNCCCCCCCCNc1c2c(nc3c1CCC3)CCCC2` [10c, 2‐[({8‐[(2,3,5,6,7,8‐Hexahydro‐1H‐cyclopenta[b]quinolin‐9‐yl)amino]octyl}amino)methyl]phenol], the IC50 in [1] (setting [10]) was 2.33 ± 0.15 µM; at equine serum BChE (setting [11]), 0.022 ± 0.0002 µM; in the data set with porcine liver CES [2] (porcine liver CES), 10.5 ± 0.1 µM; in data set [4] (setting [12]), 4.19 ± 0.2 µM; in data set [5] (setting [13]), 10.9 ± 0.6 µM; in [6], 10.1 ± 0.6 µM. The same compound showed an IC50 against human erythrocyte AChE of 0.265 ± 0.018 µM. Besides, on equine serum BChE, the “Selectivity index IC50AChE/IC50BChE” value came out at 12.0. The inhibition at 100 µM on β‐amyloid (1–42) (Aβ42) worked out at 96.7 ± 6.7%. For the same compound, the “CES inhibition, %” value with porcine liver CES [2] is 56.3±0.3 (IC50= 10.5±0.1 µM) %. The “Propidium displacement, %” value in [3] is recorded as 15.8 ± 1.1%. Besides, in [6], the “ABTS^•+‐scavenging activity, TEAC” value is reported as 1.48 ± 0.05. In addition, at human erythrocyte AChE, the “AChE inhibition, times more active than amiridine” value is “about 17 times”.
Take `Cl.Nc1c2c(nc3c1CCC3)CCCC2.O` [Amiridine, 9‐amino‐2,3,5,6,7,8‐hexahydro‐1H‐cyclopenta[b]quinoline monohydrochloride monohydrate, reference compound]: the IC50 in [1] (read-out: HEK293T IC50) was 106 ± 3 µM; in data set [4] (HepG2, 24 h, read-out: Hep G2 IC50) it was 224 ± 11.2 µM; in data set [5] (read-out: SH‐SY5Y IC50), 135 ± 18.2 µM. Also, the “ABTS^•+‐scavenging activity, TEAC” value in [6] is recorded as 0.040 ± 0.003. For the same compound, the “pKa of the endocyclic nitrogen atom” value in [7] was 9.52.
As for `CCCCCCNC(=O)c1ccccc1O` [compound 14, N‐hexylsalicylamide], the “CES inhibition, %” value in the data set on porcine liver CES [8] is 4.9 ± 1.0%. Besides, the “ABTS^•+‐scavenging activity, TEAC” value in data set [9] is 0.39 ± 0.04. The IC50 in data set [9] (read-out: ABTS^•+‐scavenging activity, IC50) is 46.5 ± 2.3 µM.
